Experimental data as given in US5719129A, “Derivative of caffeic acid, oraposide, and cosmetic or pharmaceutical compositions, in particular dermatological compositions, containing it” (priority 1993, dated 1998).
Values belong to the molecule of their own block, whether it stands above or below them.

Experiments:
A.R. calf lens = molecular target: T1, A.R. calf lens (Bos taurus, UniProt P16116); test: Inhibition of aldose reductase, calf lens; assay type: biochemical, bovine (calf)
T1 construct: crude enzyme extract isolated from lenses freshly obtained from bovines and rats; from tissue; host or cells: calf (bovine) lens, crude enzyme extract
Description: (§1) Enzyme inhibition was evaluated in vitro using a crude enzyme extract isolated from lenses freshly obtained from bovines and rats. The principle of the reaction is as follows: [drawing 3]
(§2) This reaction takes place at PH=6.2 at ambient temperature and extinctions were measured at 340 nm. The molecules tested were dissolved in twice-distilled water.
The aldose reductase inhibiting activity of the various heteroside caffeic esters (1) and (2) correspond to two different series of experiments.

A.R. - Rat lens = molecular target: T2, A.R. - Rat lens (Rattus norvegicus, UniProt P07943); test: Inhibition of aldose reductase, rat lens; assay type: biochemical
T2 construct: crude enzyme extract isolated from lenses freshly obtained from bovines and rats; from tissue; host or cells: rat lens, crude enzyme extract
Description: as §1, §2

human keratinocytes [1] = test: Anti-free-radical activity in keratinocyte cultures (MDA production); assay type: cell-based; details: for inhibition at 100 µM: Homo sapiens, Keratinocyte, 2 h, 2 hours incubation, mean of 3 measurements
Description: The anti-free-radical activity of oraposide was investigated on a line of human keratinocytes in culture, in comparison with well known anti-free-radical agents.
The protective activity of the anti-free-radical agent was evaluated by measuring malonaldehyde (MDA) in the culture medium (reflecting the lipoperoxidation of cell membrane lipids) after the cells had been brought into contact with a source of oxygenated free radicals (after the method of Z. A. Placer et al., 1966, Anal. Biochem. 16, 359-64, reference cited above).
Cells: human keratinocytes from a squamous carcinoma.
One week after seeding the merged single layer of cells was processed with […] of a solution containing an oxygenated radical generator consisting of vitamin C 10^-3 M, FeCl3 10^-4 M, FeSO4 10^-4 M in pH 8 PBS buffer to which the molecule being tested was added (=reaction medium).
After incubation at 37° C. for 2 hours this incubation medium was recovered for the determination of MDA.
After 2 hours incubation with the cells the 500 μl of reaction medium was sampled and thiobarbituric acid was added in order to determine MDA at 532 nm.
The results are stated as % inhibition of MDA production.
The investigation was performed at a concentration of 100 μM for the 3 materials after 2 hours incubation with the reaction mixture. The MDA produced, determined by spectrophotometry, provided results which are expressed as % inhibition of this production in comparison with the controls (reaction medium alone).

human keratinocytes [2] = test: Cytotoxicity in keratinocyte culture (LDH release); details: for cytotoxicity (in words) / % increase in OD with respect to the control (+DMSO), D1 / % increase in OD with respect to the control (+DMSO), D2 / % increase in OD with respect to the control (+DMSO), D3: 200 μM; for cytotoxicity (in words): LDH release; for % increase in OD with respect to the control (+DMSO), D1: day 1, mean of 3 measurements; for % increase in OD with respect to the control (+DMSO), D2: day 2, mean of 3 measurements; for % increase in OD with respect to the control (+DMSO), D3: day 3, mean of 3 measurements
Description: Culture medium: DMEM (1/2), HAM F12 (1/2) basic medium (from the Gibco company), with added 5% foetal calf serum (from the Intermed company).
Cultures were prepared in 60 mm petri dishes (NUNC), seeding density: 5000 cells per cm^2.
The compounds were tested in solution in DMSO at 200 μM, the control cultures containing an identical amount of solvent.
The amount of LDH released into the culture medium after daily treatment with anti-free-radical molecules was determined after 24 hours and then for 6 days.
The supernatant from the culture was contacted with sodium pyruvate and NADH, and the kinetics of LDH activity were measured spectrophotometrically (Boehringer kit).

[3] = test system: micromycete contaminants commonly found in foodstuffs; test: Antifungal activity against micromycete contaminants of foodstuffs (25 species); assay type: cell-based; set-up: Strains whose growth was inhibited or diminished: concentration or dose not given beside the values; details: 25 species of fungi
Description: (§3) It is known that a number of caffeic acid derivatives inhibit the growth of bacteria and fungi. This property has been confirmed for oraposide with 40 different strains belonging to 10 genera of bacteria, and 25 different strains belonging to 25 species of fungi.
Antifungal activity was tested in relation to micromycete contaminants commonly found in foodstuffs. The test was performed with 25 species belonging to the Adelomycetes (e.g. Alternaria tenuis, Fusarium avenceum, Geotricom candidum, etc.), Mucorales (e.g. Mucor mucedo, Cunninghamella elegans, Rhizopus nigricans, etc.), Endomycetes (e.g. Candida lipolytica, Saccharomyces cerevisiae, etc.), Plectomycetes (e.g. Aspergillus clavatus, A. niger, Penicillium chrysogenum, P. rubturm, etc.), and Pyrenomycetes (e.g. Chaetomium globosum, Sordaria himicola, etc.).

rabbit liver microsomes = test: Lipoperoxidation inhibition in liver microsomes (malonyl dialdehyde formation); assay type: biochemical
Description: Verbascoside, oraposide and arenarioside are heteroside esters of caffeic acid and the acids cited are other esters of caffeic acid.
A lipoperoxidation reaction takes place when rabbit liver microsomes are incubated in the presence of NADPH.
The microsomes were recovered from the processing of hepatocytes with ultrasound.
Lipoperoxidation was evaluated through the formation of malonyl dialdehyde in accordance with the method by Placer et al., 1966 (Analyt. Biochem. 16,359-364).
The reaction was performed in the absence of (control) and in the presence of caffeic acid or oraposide in a concentration of 5.10^-5 M or in the presence of α-tocopherol (Sigma) at 5.10^-5 M (known inhibiting activity reference).

[4] = test system: tremor caused by a tremor-inducing factor; test: Antitremor activity in association with L-dopa against a tremor-inducing factor, in animals and in man; assay type: in vivo; details: associated with L-dopa
Source text: (§4) In accordance with a particular embodiment of the invention within the context of antitremor treatment, in particular in Parkinson's disease, the composition according to the aforesaid invention also contains a therapeutically effective amount of L-dopa. In fat oraposide and its derivatives of formula I aforesaid have a potentiating activity for L-dopa in its antitremor activity, which is effective in particular in Parkinson's disease. Oraposide and its derivatives of formula I aforesaid associated with L-dopa in fact experimentally reduce tremor caused by a tremor-inducing factor in animals and in man. In Parkinson's disease an improvement in abnormal movements (of the choreic type) and other secondary disturbances due to treatment with L-dopa is found.

Staphylococcus aureus = test: Antibacterial effect, 29 strains of Staphylococcus aureus; assay type: cell-based
rabbit hepatocytes [5] = test: LDH release by hepatocytes in primary culture intoxicated with chloroform; assay type: cell-based; details: oraposide 5.10^-5 M; chloroform 10^-4 M; 3, 7 and 24 hours (FIG. 2)
Source text: As in FIG. 1, reference 1 indicates the results obtained with untreated cultures, reference 2 the results obtained with cultures treated with 10^-4 M chloroform, and reference 3 the results obtained with cultures treated with a combination of 10^-4 M chloroform and oraposide in a concentration of 5.10^-5 M. Chloroform is also a hepatotoxic agent.
(§5) The experimental model selected was investigation of the release of lactate dehydrogenase (LDH) by rabbit hepatocytes in primary culture, this LDH release representing a marker of hepatocyte deterioration.
(§6) The hepatocytes were deliberately intoxicated with nitroxynil (10^-4 to 10^-5 M) or chloroform (10^-3 to 10^-5 M) .
(§7) The effect of oraposide was evaluated for a final concentration of 0.05 mM in the culture medium.

rabbit hepatocytes [6] = test: LDH release by hepatocytes in primary culture intoxicated with nitroxynil; assay type: cell-based; details: oraposide 5.10^-5 M (0.05 mM); nitroxynil 10^-4 M; 3 and 7 hours (FIG. 1)
Source text: Reference 1 in the two blocks of histograms indicates the results obtained with untreated cultures, acting as controls, reference 2 indicates histogram blocks obtained using cultures treated with nitroxynil at a concentration of 10^-4 M, reference 3 indicates histogram blocks obtained with cultures treated with nitroxynil in a concentration of 10^-4 M and verbascoside in a concentration of 5.10 ^-5 M, reference 4 indicates histogram blocks obtained with cultures treated with nitroxynil in a concentration of 10^-4 M and oraposide in a concentration of 5.10^-5 M, and reference 5 indicates histogram blocks obtained with cultures treated with nitroxynil in a concentration of 10^-4 M and arenarioside in a concentration of 5.10^-5 M. Nitroxynil is a hepatotoxic agent, verbascoside and arenarioside are other heteroside esters of caffeic acid which are known to those skilled in the art.
as §5, §6, §7

Parkinson's disease = test: Effect in Parkinson's disease on abnormal movements and secondary disturbances due to treatment with L-dopa; assay type: in vivo; details: associated with L-dopa
Source text: as §4

rabbit hepatocytes [7] = test: Cell toxicity of oraposide itself on hepatocytes; assay type: cell-based; details: even at a concentration of 100 μM
Source text: as §5

bacterial strains = test: Antibacterial effect, 40 strains belonging to 10 genera of bacteria; assay type: cell-based; details: doses of 0.5 mg/ml and above
Source text: as §3
The bacterial strains tested were: Staphylococcus aureus, Streptococcus (group A and group D), Escherichia coli, Klebsiella pneumoniae, Proteus sp., Providentia sp., Serratia marcescens, Enterobacter cloacae, Pseudomonas aeruginosa, Salmonella (S. typhi and S. para-typhi).

[8] = UV absorption of oraposide compared with sunscreen filters (integration of UVB and UVA peak surface areas); assay type: physicochemical
Source text: Integration of the surface areas of the UVB peaks can be used to compare oraposide with Parsol MCX®, from which it can be seen that the UVB absorption activity of oraposide is 0.4 times that of Parsol MCX®. If the surface area of the UVA peak of oraposide is integrated and compared with Parsol 1 789®, it will be seen that the UVA absorption of oraposide is approximately 0.2 times that of Parsol 1 789®.

aldose reductase = test: Inhibition of aldose reductase, comparison in the conclusion (species not given); assay type: biochemical; details: value given in conclusion, species not specified; read-out: IC 50 (conclusion)
Source text: The four molecules inhibit aldose reductase from both cattle and rats.

[9] = 5.10^-5 M, microsomes with NADPH (FIG. 3)

SMILES: Cc1cc(C(C)(C)C)c(O)c(C(C)(C)C)c1 [BHT, reference compound]
inhibition at 100 µM (human keratinocytes [1]): 64 ± 2%
cytotoxicity (in words) (human keratinocytes [2]): high cytotoxicity

SMILES: O=C(O)/C=C/c1ccc(O)c(O)c1 [Caffeic acid, 3,4-dihydroxycinnamic acid]
Strains whose growth was inhibited or diminished [3]: 83%
Strains whose growth was inhibited by an MIC <10 mg/ml [3]: 52%
inhibition of lipoperoxidation (in words) (rabbit liver microsomes; [9]): equivalent inhibiting activity

SMILES: O=C(/C=C/c1ccc(O)c(O)c1)O[C@@H]1C[C@](O)(C(=O)O)C[C@@H](O)[C@H]1O [Chlorogenic acid]
Strains whose growth was inhibited or diminished [3]: 80%
Strains whose growth was inhibited by an MIC <10 mg/ml [3]: 40%

SMILES: CC1OC(OC2C(OC(=O)C=Cc3ccc(O)c(O)c3)C(CO)OC3OCC(c4ccc(O)c(O)c4)OC32)C(O)C(O)C1O [Oraposide, 3-0-(α-L-rhamnopyranosyl)-[2-(3,4-dihydroxyphenyl)-1,2-ethylidene]-β-D-glucopyranoside 4-caffeate]
tremor caused by a tremor-inducing factor [4]: reduce tremor
IC50 (A.R. calf lens; series (1)): 150 nM
IC50 (A.R. calf lens; series (2)): 165 nM
Strains whose growth was inhibited or diminished [3]: 92%
Strains whose growth was inhibited by an MIC <10 mg/ml [3]: 64%
inhibition at 60 µg/mL (Staphylococcus aureus; 0.06 mg/ml): 70%
inhibition at 120 µg/mL (Staphylococcus aureus; 0.12 mg/ml): 80%
release of LDH by hepatocytes intoxicated with chloroform (rabbit hepatocytes [5]): a less clear effect
inhibition of lipoperoxidation (rabbit liver microsomes; [9]): 100%
inhibition of lipoperoxidation (in words) (rabbit liver microsomes; [9]): stronger inhibition
inhibition of lipid oxidation potentiated by CCl4 (rabbit liver microsomes; free radical generator CCl4): 100%
inhibition of lipid oxidation potentiated by H2O2 (rabbit liver microsomes; free radical generator H2 O2): 90%
IC50 (rabbit liver microsomes; read-out: dose required to obtain 50% inhibition of lipoperoxidation, FIG. 4): 10000 nM
protective power / anti-free-radical activity (in words) (human keratinocytes [1]; 100 μM): equally effective as BHT, but less effective than α-tocopherol
inhibition at 100 µM (human keratinocytes [1]; 1st experiment): 70 ± 3%
inhibition at 100 µM (human keratinocytes [1]; 2nd experiment): 60 ± 15%
release of LDH by hepatocytes intoxicated with nitroxynil (rabbit hepatocytes [6]): very significantly reduces the release of LDH
abnormal movements (of the choreic type) and other secondary disturbances due to treatment with L-dopa (Parkinson's disease): improvement
cell toxicity (rabbit hepatocytes [7]): no cell toxicity
inhibition of all bacterial strains (bacterial strains): 100%
IC50 (A.R. - Rat lens): 220 nM
UVA absorption relative to Parsol 1 789 ([8]; surface area of UVA peak, vs Parsol 1 789): approximately 0.2 times
UVB absorption activity relative to Parsol MCX ([8]; surface area of UVB peak, vs Parsol MCX): 0.4 times
IC50 (aldose reductase): 160 nM
cytotoxicity (in words) (human keratinocytes [2]): no cytotoxic effect
% increase in OD with respect to the control (+DMSO), D1 (human keratinocytes [2]): 0%
% increase in OD with respect to the control (+DMSO), D2 (human keratinocytes [2]): 0%
% increase in OD with respect to the control (+DMSO), D3 (human keratinocytes [2]): 0%
cytotoxic effect up to a concentration of 200 μM (human keratinocytes [2]; up to 200 μM): no cytotoxic effect

SMILES: Cc1c(C)c2c(c(C)c1O)CCC(C)(CCCC(C)CCCC(C)CCCC(C)C)O2 (stereo not drawn) [α-tocopherol, reference compound]
inhibition of lipoperoxidation (in words) (rabbit liver microsomes; [9]): equivalent inhibiting activity
inhibition at 100 µM (human keratinocytes [1]): 100%
cytotoxicity (in words) (human keratinocytes [2]): less pronounced
% increase in OD with respect to the control (+DMSO), D1 (human keratinocytes [2]): 19 ± 2%
% increase in OD with respect to the control (+DMSO), D2 (human keratinocytes [2]): 83 ± 20%
% increase in OD with respect to the control (+DMSO), D3 (human keratinocytes [2]): 54 ± 8%

More lines, main results first:

IC50 (A.R. calf lens; series (1)): 2380 nM
IC50 (A.R. calf lens; series (2)): 1470 nM
IC50 (A.R. - Rat lens): 4180 nM
SMILES: C[C@@H]1OC(O[C@@H]2[C@@H](O)[C@H](OCCc3ccc(O)c(O)c3)O[C@H](CO[C@@H]3OC[C@@H](O)[C@H](O)[C@H]3O)[C@H]2OC(=O)/C=C/c2ccc(O)c(O)c2)[C@H](O)[C@H](O)[C@H]1O (stereo partly shown) [Arenarioside]

Strains whose growth was inhibited by an MIC <10 mg/ml [3]: 96%
SMILES: O=C(/C=C/c1ccc(O)c(O)c1)O[C@H](Cc1ccc(O)c(O)c1)C(=O)O [Rosmarinic acid]
Strains whose growth was inhibited or diminished [3]: 100%

IC50 (A.R. calf lens; series (1)): 1600 nM
IC50 (A.R. calf lens; series (2)): 1600 nM
Strains whose growth was inhibited by an MIC <10 mg/ml [3]: 44%
IC50 (A.R. - Rat lens): 1780 nM
SMILES: C[C@@H]1O[C@@H](O[C@@H]2[C@@H](O)[C@H](OCCc3ccc(O)c(O)c3)O[C@H](CO)[C@H]2OC(=O)/C=C/c2ccc(O)c(O)c2)[C@H](O)[C@H](O)[C@H]1O [Verbascoside]
Strains whose growth was inhibited or diminished [3]: 72%
